Values quoted from earlier work in patent US6369046B1, “Methods for treating dementia” (The Board of Trustees of the Leland Stanford Junior …, priority 1998, dated 2002).

Columns and labels:
[1] = target: T1, glucocorticoid (GR) receptor (Homo sapiens, UniProt P04150); conditions: Bocquel (1993) for RU009; cited from earlier work
T1 sequence (P04150 1-777): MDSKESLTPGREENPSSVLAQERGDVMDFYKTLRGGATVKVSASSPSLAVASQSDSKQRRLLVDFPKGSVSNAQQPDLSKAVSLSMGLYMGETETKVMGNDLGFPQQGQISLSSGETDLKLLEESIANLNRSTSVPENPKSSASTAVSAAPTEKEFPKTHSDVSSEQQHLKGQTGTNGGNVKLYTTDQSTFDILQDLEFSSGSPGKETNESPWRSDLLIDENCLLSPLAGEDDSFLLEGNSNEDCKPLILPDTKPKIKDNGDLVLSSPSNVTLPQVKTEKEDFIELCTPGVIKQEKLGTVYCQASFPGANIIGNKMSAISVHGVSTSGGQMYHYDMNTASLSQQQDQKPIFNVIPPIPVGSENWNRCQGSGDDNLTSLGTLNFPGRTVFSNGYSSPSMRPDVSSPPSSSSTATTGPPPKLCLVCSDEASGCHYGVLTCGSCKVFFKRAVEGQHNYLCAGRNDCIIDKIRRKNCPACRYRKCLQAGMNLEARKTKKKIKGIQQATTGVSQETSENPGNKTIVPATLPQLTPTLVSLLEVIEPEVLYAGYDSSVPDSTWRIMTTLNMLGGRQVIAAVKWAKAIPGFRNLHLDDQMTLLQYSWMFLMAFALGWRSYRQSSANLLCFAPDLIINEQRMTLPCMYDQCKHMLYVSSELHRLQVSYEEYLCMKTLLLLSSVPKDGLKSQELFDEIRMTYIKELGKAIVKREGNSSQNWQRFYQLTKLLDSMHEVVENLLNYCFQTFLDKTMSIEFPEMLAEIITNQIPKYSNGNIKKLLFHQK

[2] = Kawai (1989) supra; cited from earlier work
progesterone receptor = target: T2, progesterone receptor (Homo sapiens, UniProt P06401); conditions: cited from earlier work
T2 sequence (P06401 1-933): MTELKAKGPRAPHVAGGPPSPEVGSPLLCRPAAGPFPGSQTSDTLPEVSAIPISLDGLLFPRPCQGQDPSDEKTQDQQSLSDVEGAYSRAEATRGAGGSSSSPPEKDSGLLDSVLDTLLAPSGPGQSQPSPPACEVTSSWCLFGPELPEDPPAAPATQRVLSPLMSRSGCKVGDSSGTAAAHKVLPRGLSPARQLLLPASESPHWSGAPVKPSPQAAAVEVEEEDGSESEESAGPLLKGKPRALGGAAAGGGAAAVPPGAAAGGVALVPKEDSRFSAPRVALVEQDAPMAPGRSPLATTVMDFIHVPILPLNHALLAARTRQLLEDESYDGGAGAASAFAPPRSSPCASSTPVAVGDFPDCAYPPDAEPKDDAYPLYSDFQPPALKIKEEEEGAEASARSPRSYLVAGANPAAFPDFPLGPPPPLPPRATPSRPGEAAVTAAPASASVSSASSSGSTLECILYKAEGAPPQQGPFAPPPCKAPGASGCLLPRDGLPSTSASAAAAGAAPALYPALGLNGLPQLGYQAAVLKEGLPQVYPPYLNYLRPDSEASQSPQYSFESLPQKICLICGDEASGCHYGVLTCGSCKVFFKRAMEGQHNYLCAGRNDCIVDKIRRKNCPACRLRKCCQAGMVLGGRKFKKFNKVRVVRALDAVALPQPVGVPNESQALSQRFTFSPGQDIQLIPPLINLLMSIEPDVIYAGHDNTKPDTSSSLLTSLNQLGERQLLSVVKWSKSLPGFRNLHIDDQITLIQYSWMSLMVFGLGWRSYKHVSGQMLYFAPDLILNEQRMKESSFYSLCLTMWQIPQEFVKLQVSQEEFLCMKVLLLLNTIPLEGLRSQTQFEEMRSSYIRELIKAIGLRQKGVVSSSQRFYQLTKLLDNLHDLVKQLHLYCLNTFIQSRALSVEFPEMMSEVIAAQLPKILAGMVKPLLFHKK

| Structure (SMILES) | GR antagonism [1] | fraction of the daily dose excreted in the urine [2] | progesterone receptor antagonism (progesterone receptor) |
| --- | --- | --- | --- |
| CC#C[C@]1(O)CC[C@H]2[C@@H]3CCC4=CC(=O)CCC4=C3[C@@H](c3ccc(OCCN(C)C)cc3)C[C@@]21C [RU009, 11-beta-(4-dimethyl-aminoethoxyphenyl)-1 7-alpha-(propynyl-17 beta-hydroxy-4,9-estradien-3-one)] | GR antagonist effects | – | – |
| CC#C[C@]1(O)CC[C@H]2[C@@H]3CCC4=CC(=O)CCC4=C3[C@@H](c3ccc(N(C)C)cc3)C[C@@]21C [mifepristone, 17-beta-hydroxy-11-beta-(4-dimethyl-aminophenyl)-17-alpha-(1-propynyl)-estra-4,9-dien-3-one] | powerful antagonist | less than 0.5 % of the daily dose | powerful antagonist |
